Like-named read-outs stand apart in the source and are kept apart here.
What was measured:
Type in all cases: in vivo
[1] = tested on: mice with hypertensive heart disease induced by angiotensin II (AngII); experiment: AngII-induced hypertensive heart disease mouse model: echocardiogram; details: left ventricle, day 14
Description: After male C57BL/6 mice were acclimated to the environment, they were randomly divided into 10 groups, namely the blank control group, the AngII model group, the AngII+telmisartan 10 mg/kg positive control group, the AngII+spironolactone 20 mg/kg positive control group, the AngII+Formula I (0.1, 0.5, 2 mg/kg) groups, and the AngII+Formula II (0.1, 0.5, 2 mg/kg) groups. The mice in the drug administration groups were intragastrically administered the corresponding doses of Formula I and Formula II compounds once a day at the same time. The mice in the positive control groups were intragastrically administered the corresponding doses of telmisartan and spironolactone once a day. The mice in the blank control group and the model group were given the same amount of solvent (0.5% CMC-Na solution). The administration volume was 10 mL/kg, and the administration was continuous for 14 days.
From the 1st to the 13th day of drug administration, AngII modeling was carried out. The mice in the blank control group were subcutaneously injected with normal saline, and the mice in the other groups were subcutaneously injected with 1.44 mg/kg of AngII (modeling was carried out 2 h after drug administration), for a total of 13 times.
Echocardiogram detection: On the 14th day of drug administration (after 13 times of AngII modeling), 5 animals were randomly selected from each group. After anesthesia and fixation, the chest hair was shaved, and a small amount of coupling agent was applied to the chest. The Vevo 770 Imaging System, a small animal ultrasonic real-time imaging system, was used for echocardiogram examination. All echocardiogram indexes of the animals were continuously measured for 3 cardiac cycles, and the average value was taken.

[2] = tested on: mice with hypertensive heart disease induced by angiotensin II (AngII); experiment: AngII-induced hypertensive heart disease mouse model: serum TNF-α (ELISA)
Description: (§1) After male C57BL/6 mice were acclimated to the environment, they were randomly divided into 10 groups, namely the blank control group, the AngII model group, the AngII+telmisartan 10 mg/kg positive control group, the AngII+spironolactone 20 mg/kg positive control group, the AngII+Formula I (0.1, 0.5, 2 mg/kg) groups, and the AngII+Formula II (0.1, 0.5, 2 mg/kg) groups. The mice in the drug administration groups were intragastrically administered the corresponding doses of Formula I and Formula II compounds once a day at the same time. The mice in the positive control groups were intragastrically administered the corresponding doses of telmisartan and spironolactone once a day. The mice in the blank control group and the model group were given the same amount of solvent (0.5% CMC-Na solution). The administration volume was 10 mL/kg, and the administration was continuous for 14 days. From the 1st to the 13th day of drug administration, AngII modeling was carried out. The mice in the blank control group were subcutaneously injected with normal saline, and the mice in the other groups were subcutaneously injected with 1.44 mg/kg of AngII (modeling was carried out 2 h after drug administration), for a total of 13 times. Detection of serum inflammatory factors: After the experiment, the animals were sacrificed by enucleation to obtain blood. The blood was left to stand at room temperature for 2 hours, and then centrifuged at 3500 rpm for 20 minutes to separate the serum. The content of serum TNF-α was determined according to the instructions of the ELISA kit.

[3] = tested on: mice with hypertensive heart disease induced by angiotensin II (AngII); set-up: unit not given here
Description: After male C57BL/6 mice were acclimated to the environment, they were randomly divided into 10 groups, namely the blank control group, the AngII model group, the AngII+telmisartan 10 mg/kg positive control group, the AngII+spironolactone 20 mg/kg positive control group, the AngII+Formula I (0.1, 0.5, 2 mg/kg) groups, and the AngII+Formula II (0.1, 0.5, 2 mg/kg) groups. The mice in the drug administration groups were intragastrically administered the corresponding doses of Formula I and Formula II compounds once a day at the same time. The mice in the positive control groups were intragastrically administered the corresponding doses of telmisartan and spironolactone once a day. The mice in the blank control group and the model group were given the same amount of solvent (0.5% CMC-Na solution). The administration volume was 10 mL/kg, and the administration was continuous for 14 days. From the 1st to the 13th day of drug administration, AngII modeling was carried out. The mice in the blank control group were subcutaneously injected with normal saline, and the mice in the other groups were subcutaneously injected with 1.44 mg/kg of AngII (modeling was carried out 2 h after drug administration), for a total of 13 times. […] Three mice were randomly selected from each group. The mice were placed in a fixator to expose the tail. The fixator was placed on a heating pad to maintain the normal body temperature of the mice. The root of the tail was passed through a pressurized tail cuff and fixed. Inflation and pressurization were started, and a measuring instrument was used to measure the systolic blood pressure (SBP). The blood pressure index of each animal was continuously measured 5 times, and the average value was taken.

[4] = tested on: mice with hypertensive heart disease induced by angiotensin II (AngII); experiment: AngII-induced hypertensive heart disease mouse model: serum cTn-T and CK-MB (ELISA)
Description: as §1, with “biomarkers of myocardial injury:” for “inflammatory factors:”, “contents” for “content”, “cardiac troponin cTn-T and myocardial enzyme CK-MB were” for “TNF-α was”

[5] = 20 mg/kg intragastric once a day
[6] = 20 mg/kg intragastric once a day 14 days
[7] = 0.1 mg/kg intragastric once a day
[8] = 0.5 mg/kg intragastric once a day
[9] = 2 mg/kg intragastric once a day
[10] = 0.1 mg/kg intragastric once a day 14 days
[11] = 0.5 mg/kg intragastric once a day 14 days
[12] = 2 mg/kg intragastric once a day 14 days
[13] = 0 d (before administration), 0.1 mg/kg group
[14] = 0 d (before administration), 0.5 mg/kg group
[15] = 0 d (before administration), 2 mg/kg group
[16] = 7 d, 0.1 mg/kg intragastric once a day, AngII 1.44 mg/kg s.c.
[17] = 7 d, 0.5 mg/kg intragastric once a day, AngII 1.44 mg/kg s.c.
[18] = 7 d, 2 mg/kg intragastric once a day, AngII 1.44 mg/kg s.c.
[19] = 14 d, 0.1 mg/kg intragastric once a day, AngII 1.44 mg/kg s.c.
[20] = 14 d, 0.5 mg/kg intragastric once a day, AngII 1.44 mg/kg s.c.
[21] = 14 d, 2 mg/kg intragastric once a day, AngII 1.44 mg/kg s.c.
[22] = 10 mg/kg intragastric once a day
[23] = 10 mg/kg intragastric once a day 14 days

Row | Compound | Post-diastolic posterio rwall thickness [1, 7] [mm] | Posterior wall thickness in systole [1, 7] [mm] | Post-diastolic posterio rwall thickness [1, 8] [mm] | Posterior wall thickness in systole [1, 8] [mm] | Post-diastolic posterio rwall thickness [1, 9] [mm] | Posterior wall thickness in systole [1, 9] [mm] | TNF-α [2, 10] [ng/L] | TNF-α [2, 11] [ng/L] | TNF-α [2, 12] [ng/L] | SBP [3, 13] | SBP [3, 14] | SBP [3, 15] | SBP [3, 16] | SBP [3, 17] | SBP [3, 18] | SBP [3, 19] | SBP [3, 20] | SBP [3, 21] | CK-MB [4, 10] [ng/mL] | cTn-T [4, 10] [ng/L] | further results
1 | CC(=O)S[C@@H]1CC2=CC(=O)CC[C@]2(C)[C@H]2CC[C@@]3(C)[C@@H](CC[C@@]34CCC(=O)O4)[C@H]12 [Spironolactone, reference compound] | – | – | – | – | – | – | – | – | – | – | – | – | – | – | – | – | – | – | – | – | Post-diastolic posterio rwall thickness [1, 5]: 0.81 ± 0.07 mm; Posterior wall thickness in systole [1, 5]: 1.01 ± 0.08 mm; TNF-α [2, 6]: 758.49 ± 72.35 ng/L; SBP ([3]; 0 d (before administration), 20 mg/kg group): 106.13 ± 0.81; SBP ([3]; 7 d, 20 mg/kg intragastric once a day, AngII 1.44 mg/kg s.c.): 109.73 ± 6.81; SBP ([3]; 14 d, 20 mg/kg intragastric once a day, AngII 1.44 mg/kg s.c.): 109.70 ± 4.20; CK-MB [4, 6]: 18.86 ± 1.40 ^ ng/mL; cTn-T [4, 6]: 169.17 ± 21.95 ng/L
2 | O=c1c(Cc2ccc3c(c2)OCO3)coc2cc(O)cc(O)c12 [Formula I] | 0.79 ± 0.09 | 0.90 ± 0.06 | 0.64 ± 0.02 | 0.87 ± 0.11 | 0.67 ± 0.08 | 0.90 ± 0.16 | 706.64 ± 91.15 | 699.02 ± 55.58 | 634.24 ± 98.58 | 102.13 ± 4.30 | 109.70 ± 5.67 | 104.93 ± 9.21 | 121.33 ± 3.19 | 109.80 ± 4.50 | 107.73 ± 6.53 | 107.60 ± 9.81 | 105.13 ± 7.10 | 109.20 ± 5.19 | 15.73 ± 1.79 | 167.25 ± 24.56 | CK-MB [4, 11]: 15.17 ± 1.63 ng/mL; cTn-T [4, 11]: 165.79 ± 23.78 ng/L; CK-MB [4, 12]: 15.72 ± 1.89 ng/mL; cTn-T [4, 12]: 164.52 ± 19.68 ng/L
3 | CCCc1nc2c(C)cc(-c3nc4ccccc4n3C)cc2n1Cc1ccc(-c2ccccc2C(=O)O)cc1 [Telmisartan, reference compound] | – | – | – | – | – | – | – | – | – | – | – | – | – | – | – | – | – | – | – | – | Post-diastolic posterio rwall thickness [1, 22]: 0.65 ± 0.07 mm; Posterior wall thickness in systole [1, 22]: 0.79 ± 0.16 mm; TNF-α [2, 23]: 616.87 ± 70.42 ng/L; SBP ([3]; 0 d (before administration), 10 mg/kg group): 104.13 ± 3.56; SBP ([3]; 7 d, 10 mg/kg intragastric once a day, AngII 1.44 mg/kg s.c.): 91.20 ± 6.35^###&; SBP ([3]; 14 d, 10 mg/kg intragastric once a day, AngII 1.44 mg/kg s.c.): 100.47 ± 7.68; CK-MB [4, 23]: 12.72 ± 1.09 ng/mL; cTn-T [4, 23]: 134.07 ± 17.50 ng/L
4 | Cc1c(O)cc(O)c2c(=O)c(Cc3ccc4c(c3)OCO4)coc12 [Formula II, 3-(benzo[d][1,3]dioxol-5-ylmethyl)-5,7-dihydroxy-8-methyl-4H-chromen-4-one] | 0.72 ± 0.08 | 0.91 ± 0.10 | 0.69 ± 0.06 | 0.87 ± 0.04 | 0.72 ± 0.06 | 0.82 ± 0.11 | 645.36 ± 87.50 | 671.09 ± 80.55 | 627.56 ± 98.89 | 100.30 ± 7.37 | 102.43 ± 8.41 | 101.27 ± 12.13 | 105.73 ± 6.00 | 106.07 ± 1.22 | 110.93 ± 5.78 | 110.13 ± 3.51 | 113.93 ± 3.51 | 108.27 ± 7.29 | 15.36 ± 2.41 | 153.56 ± 13.05 | CK-MB [4, 11]: 14.07 ± 1.33 ng/mL; cTn-T [4, 11]: 145.15 ± 15.79 ng/L; CK-MB [4, 12]: 13.39 ± 2.57 ng/mL; cTn-T [4, 12]: 136.64 ± 18.24 ng/L
